Earlier results in patent US20110171166A1, “POLYMER CONJUGATES OF O[…]” (Nektar Therapeutics, priority 2008, published 2011).

Legend:
[1] = tested on: isolated pancreatic islets, a β cell line
WT mice = conditions: long-term treatment; gold thioglucose-induced hyperphagia and high-fat diet
primary adipocytes = conditions: white and brown respectively

Q: With osteocalcin as the substance, how does the “amount sufficient to regulate the expression of the insulin genes and β cell proliferation markers” value [1] read?
A: picomolar amounts

Q: And the “effect on body mass and glucose metabolism” value (WT mice)?
A: significantly weaken the deleterious effect on body mass and glucose metabolism

Q: And the “amount affecting adiponectin and Pgc1α expression in white and brown adipocytes” value (primary adipocytes)?
A: nanomolar amounts
